Where two headings read alike, the source gives them in different places.
Tests used:
Assay type in all cases: cell-based
recombinant NL4-3 virus = test: HIV cell culture assay: antiviral activity toward recombinant NL4-3 Renilla luciferase virus in MT-2 cells
Experimental: HIV cell culture assay - MT-2 cells, 293T cells and the proviral DNA clone of NL4-3 virus were obtained from the NIH AIDS Research and Reference Reagent Program. MT-2 cells were propagated in RPMI 1640 media supplemented with 10% heat inactivated fetal bovine serum (FBS), […]. The 293T cells were propagated in DMEM media supplemented with 10% heat inactivated FBS, […]. A recombinant NL4-3 proviral clone, in which a section of the nef gene was replaced with the Renilla luciferase gene, was used to make the reference virus used in these studies. The recombinant virus was prepared through transfection of the recombinant NL4-3 proviral clone into 293T cells using Transit-293 Transfection Reagent from Mirus Bio LLC (Madison, WI). Supernatent was harvested after 2-3 days and the amount of virus present was titered in MT-2 cells using luciferase enzyme activity as a marker by measuring luciferase enzyme activity. Luciferase was quantitated using the EnduRen Live Cell Substrate from Promega (Madison, WI). Antiviral activities of compounds toward the recombinant virus were quantified by measuring luciferase activity in MT-2 cells infected for 4-5 days with the recombinant virus in the presence of serial dilutions of the compound.
The 50% effective concentration (EC50) was calculated by using the exponential form of the median effect equation where (Fa) = 1/[1+ (ED50/drug conc.)m] (Johnson VA, Byington RT. Infectivity Assay. In Techniques in HIV Research. ed. Aldovini A, Walker BD. 71-76. New York: Stockton Press.1990). The 50% inhibitory concentration (EC50) was calculated by using the exponential form of the median effect equation where percent inhibition = 1/[1 + (EC50/drug concentration)m], where m is a parameter that reflects the slope of the concentration-response curve.

[1] = Compound cytotoxicity, XTT-based colorimetric assay; conditions: human; uninfected MT2 cells, day 4, XTT
Experimental: (§1) Compound cytotoxicity and the corresponding CC50 values were determined using the same protocol as described in the antiviral assay except that uninfected cells were used. Cytotoxicity was assessed on day 4 in uninfected MT2 cells by using a XTT (2,3-bis[2-Methoxy-4-nitro-5-sulfophenyl]-2H-tetrazolium-5-carboxyanilide inner salt)-based colorimetric assay (Sigma-Aldrich, St Louis, Mo).

uninfected MT2 cells = test: as above; conditions: day 4, XTT
Experimental: as §1

[2] = Human immunodeficiency virus 1, NL43, MT2

| SMILES | EC50 (recombinant NL4-3 virus; [2]) [nM] | CC50 at 4 day [1] [nM] | EC50 (recombinant NL4-3 virus; MT-2 cells infected 4-5 days, luciferase activity, read-out: EC50) [nM] | CC50 (uninfected MT2 cells) [nM] |
| --- | --- | --- | --- | --- |
| Cn1nc(NS(C)(=O)=O)c2c(Cl)ccc(-n3c([C@H](Cc4cc(F)cc(F)c4)NC(=O)Cn4nc(C(F)F)c5c4C(F)(F)[C@@H]4C[C@H]54)nc4nc(OCCC(F)(F)F)ccc4c3=O)c21 (atropisomer, axis not shown; (P)) [Example 4, N-(1-((6P)-3-(4-chloro-1-methyl-3-(methylsulfonamido)-1H-indazol-7-yl)-4-oxo-7-(3,3,3-trifluoropropoxy)-3,4-dihydropyrido[2,3-d]pyrimidin-2-yl)-2-(3,5-difluorophenyl)ethyl)-2-((3bS,4aR)-3-(difluoromethyl)-5,5-difluoro-3b,4,4a,5-tetrahydro-1H-cyclopropa[3,4]cyclopenta[1,2-c]pyrazol-1-yl)acetamide] | 0.025 | > 500 |  |  |
| Cn1nc(NS(C)(=O)=O)c2c(Cl)ccc(-n3c([C@H](Cc4cc(F)cc(F)c4)NC(=O)Cn4nc(C(F)F)c5c4C(F)(F)[C@@H]4C[C@H]54)nc4cc(-c5nccc(C(F)F)n5)ccc4c3=O)c21 (single isomer, unassigned) [Example 2] | 0.043 | > 20000 |  |  |
| Cn1nc(NS(C)(=O)=O)c2cccc(-n3c([C@H](Cc4cc(F)cc(F)c4)NC(=O)Cn4nc(C(F)F)c5c4C(F)(F)[C@@H]4C[C@H]54)nc4nc(OCCC(C)(F)F)ccc4c3=O)c21 (single isomer, unassigned) [Example 3] | 0.019 | > 20000 |  |  |
| Cn1nc(NS(C)(=O)=O)c2c(Cl)ccc(-n3c([C@H](Cc4cc(F)cc(F)c4)NC(=O)Cn4nc(C(F)F)c5c4C(F)(F)[C@@H]4C[C@H]54)nc4cc(-c5cccc(C(F)(F)F)n5)ccc4c3=O)c21 [Example 1, N-((S)-1-((3P)-3-(4-chloro-1-methyl-3-(methylsulfonamido)-1H-indazol-7-yl)-4-oxo-7-(6-(trifluoromethyl)pyridin-2-yl)-3,4-dihydroquinazolin-2-yl)-2-(3,5-difluorophenyl)ethyl)-2-((3bS,4aR)-3-(difluoromethyl)-5,5-difluoro-3b,4,4a,5-tetrahydro-1H-cyclopropa[3,4]cyclopenta[1,2-c]pyrazol-1-yl)acetamide] |  |  | 0.093 | > 20000 |
